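Compound exposure: 48 hours, 5 concentrations, 96-well plates. The concentration for full growth arrest is given as TGI.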
How the values were obtained:
Test in all cases: NCI tumour cell line growth inhibition, 48 h
UO-31 renal = test system: UO-31 renal
EKVX NSCLC = test system: EKVX NSCLC
HOP-92 NSCLC = test system: HOP-92 NSCLC
ACHN renal = test system: ACHN renal
SK-OV-3 ovarian = test system: SK-OV-3 ovarian
HCC-2998 colon = test system: HCC-2998 colon
A549 NSCLC = test system: A549 NSCLC
SNB-19 CNS = test system: SNB-19 CNS
NCI-H460 lung = test system: NCI-H460 lung
SNB-75 CNS = test system: SNB-75 CNS
U251 CNS = test system: U251 CNS
M14 melanoma = test system: M14 melanoma
NCI/ADR-RES ovarian = test system: NCI/ADR-RES ovarian
HS 578T breast = test system: HS 578T breast
CAKI-1 renal = test system: CAKI-1 renal
NCI-H23 lung = test system: NCI-H23 lung
MCF7 breast = test system: MCF7 breast
MDA-MB-231 breast = test system: MDA-MB-231 breast
SF-295 CNS = test system: SF-295 CNS
LOX IMVI melanoma = test system: LOX IMVI melanoma
IGROV1 ovarian = test system: IGROV1 ovarian
SK-MEL-5 melanoma = test system: SK-MEL-5 melanoma
OVCAR-4 ovarian = test system: OVCAR-4 ovarian
RPMI-8226 leukemia = test system: RPMI-8226 leukemia
PC-3 prostate = test system: PC-3 prostate
CCRF-CEM leukemia = test system: CCRF-CEM leukemia
NCI-H226 lung = test system: NCI-H226 lung
OVCAR-8 ovarian = test system: OVCAR-8 ovarian
SN12C renal = test system: SN12C renal
MDA-N = test system: MDA-N
SF-539 CNS = test system: SF-539 CNS
OVCAR-5 ovarian = test system: OVCAR-5 ovarian
MOLT-4 leukemia = test system: MOLT-4 leukemia
HCT-15 colon = test system: HCT-15 colon
UACC-62 melanoma = test system: UACC-62 melanoma
SR leukemia = test system: SR leukemia
NCI-H522 lung = test system: NCI-H522 lung
HL-60(TB) leukemia = test system: HL-60(TB) leukemia
RXF 393 renal = test system: RXF 393 renal
MALME-3M melanoma = test system: MALME-3M melanoma
MDA-MB-435 = test system: MDA-MB-435
SF-268 CNS = test system: SF-268 CNS
K-562 leukemia = test system: K-562 leukemia
OVCAR-3 ovarian = test system: OVCAR-3 ovarian
COLO 205 colon = test system: COLO 205 colon
BT-549 breast = test system: BT-549 breast
SK-MEL-28 melanoma = test system: SK-MEL-28 melanoma
HT29 colon = test system: HT29 colon
KM12 colon = test system: KM12 colon
SW-620 colon = test system: SW-620 colon
TK-10 renal = test system: TK-10 renal
HOP-62 NSCLC = test system: HOP-62 NSCLC
DU-145 prostate = test system: DU-145 prostate
SK-MEL-2 melanoma = test system: SK-MEL-2 melanoma
HCT-116 colon = test system: HCT-116 colon
A498 renal = test system: A498 renal
T-47D breast = test system: T-47D breast
UACC-257 melanoma = test system: UACC-257 melanoma
786-0 renal = test system: 786-0 renal

COc1cc2c(cc1OC)[C@H]1C(=O)c3cc4c(cc3[C@H]1N(C)C2=O)OCO4 was tested. Which TGI (UO-31 renal) did it give?
Its TGI is over 39.3 µM.

And the TGI (EKVX NSCLC)?
Its TGI is over 100 µM.

What about the TGI (HOP-92 NSCLC) of the same molecule?
Its TGI is over 89.8 µM.

What about the TGI (ACHN renal) of the same molecule?
The TGI was over 100 µM.

And the TGI (SK-OV-3 ovarian)?
Its TGI is over 100 µM.

What about the TGI (HCC-2998 colon) of the same molecule?
The TGI was over 100 µM.

And the TGI (A549 NSCLC)?
Its TGI is over 100 µM.

What about the TGI (SNB-19 CNS) of the same molecule?
Its TGI is over 100 µM.

And the TGI (NCI-H460 lung)?
Its TGI is over 100 µM.

And the TGI (SNB-75 CNS)?
The TGI was over 100 µM.

What about the TGI (U251 CNS) of the same molecule?
The TGI was over 100 µM.

What about the TGI (M14 melanoma) of the same molecule?
Its TGI is over 76.6 µM.

And the TGI (NCI/ADR-RES ovarian)?
Its TGI is over 100 µM.

And the TGI (HS 578T breast)?
The TGI was over 100 µM.

What about the TGI (CAKI-1 renal) of the same molecule?
The TGI was over 100 µM.

What about the TGI (NCI-H23 lung) of the same molecule?
Its TGI is over 74.1 µM.

What about the TGI (MCF7 breast) of the same molecule?
The TGI was over 100 µM.

What about the TGI (MDA-MB-231 breast) of the same molecule?
The TGI was over 100 µM.

What about the TGI (SF-295 CNS) of the same molecule?
Its TGI is over 69.9 µM.

What about the TGI (LOX IMVI melanoma) of the same molecule?
Its TGI is over 40.8 µM.

And the TGI (IGROV1 ovarian)?
Its TGI is over 100 µM.

What about the TGI (SK-MEL-5 melanoma) of the same molecule?
The TGI was over 48.8 µM.

And the TGI (OVCAR-4 ovarian)?
Its TGI is over 100 µM.

What about the TGI (RPMI-8226 leukemia) of the same molecule?
The TGI was over 100 µM.

And the TGI (PC-3 prostate)?
Its TGI is over 100 µM.

And the TGI (CCRF-CEM leukemia)?
The TGI was 17 µM.

What about the TGI (NCI-H226 lung) of the same molecule?
The TGI was over 100 µM.

What about the TGI (OVCAR-8 ovarian) of the same molecule?
The TGI was over 100 µM.

What about the TGI (SN12C renal) of the same molecule?
Its TGI is over 100 µM.

What about the TGI (MDA-N) of the same molecule?
The TGI was over 100 µM.

And the TGI (SF-539 CNS)?
The TGI was over 77.8 µM.

And the TGI (OVCAR-5 ovarian)?
The TGI was over 100 µM.

What about the TGI (MOLT-4 leukemia) of the same molecule?
The TGI was 5.7 µM.

What about the TGI (HCT-15 colon) of the same molecule?
Its TGI is over 100 µM.

And the TGI (UACC-62 melanoma)?
The TGI was over 100 µM.

What about the TGI (SR leukemia) of the same molecule?
Its TGI is over 100 µM.

And the TGI (NCI-H522 lung)?
Its TGI is over 75 µM.

What about the TGI (HL-60(TB) leukemia) of the same molecule?
Its TGI is over 68.6 µM.

What about the TGI (RXF 393 renal) of the same molecule?
Its TGI is over 100 µM.

And the TGI (MALME-3M melanoma)?
Its TGI is over 89.5 µM.

What about the TGI (MDA-MB-435) of the same molecule?
Its TGI is over 100 µM.

And the TGI (SF-268 CNS)?
Its TGI is over 100 µM.

And the TGI (K-562 leukemia)?
The TGI was over 100 µM.

And the TGI (OVCAR-3 ovarian)?
The TGI was over 100 µM.

What about the TGI (COLO 205 colon) of the same molecule?
Its TGI is over 46.4 µM.

What about the TGI (BT-549 breast) of the same molecule?
Its TGI is over 100 µM.

What about the TGI (SK-MEL-28 melanoma) of the same molecule?
The TGI was over 100 µM.

And the TGI (HT29 colon)?
Its TGI is over 100 µM.

What about the TGI (KM12 colon) of the same molecule?
The TGI was over 100 µM.

And the TGI (SW-620 colon)?
The TGI was over 100 µM.

And the TGI (TK-10 renal)?
Its TGI is over 100 µM.

What about the TGI (HOP-62 NSCLC) of the same molecule?
Its TGI is over 79.2 µM.

And the TGI (DU-145 prostate)?
The TGI was over 100 µM.

And the TGI (SK-MEL-2 melanoma)?
Its TGI is over 100 µM.

And the TGI (HCT-116 colon)?
Its TGI is over 100 µM.

And the TGI (A498 renal)?
The TGI was over 79.5 µM.

And the TGI (T-47D breast)?
The TGI was over 100 µM.

And the TGI (UACC-257 melanoma)?
Its TGI is over 100 µM.

And the TGI (786-0 renal)?
Its TGI is over 45.2 µM.

With Cc1ccc(Nc2nnc3n2S(=O)(=O)c2cc(C)c(Cl)cc2S3)cc1 as the molecule, how does the TGI (UO-31 renal) read?
The TGI was 81.3 µM.

And the TGI (EKVX NSCLC)?
Its TGI is 87.4 µM.

And the TGI (HOP-92 NSCLC)?
The TGI was 83.1 µM.

What about the TGI (ACHN renal) of the same molecule?
Its TGI is over 100 µM.

What about the TGI (HCC-2998 colon) of the same molecule?
Its TGI is 55.8 µM.

And the TGI (A549 NSCLC)?
The TGI was 61.6 µM.

What about the TGI (NCI-H460 lung) of the same molecule?
Its TGI is over 100 µM.

What about the TGI (SNB-75 CNS) of the same molecule?
The TGI was 73.4 µM.

What about the TGI (U251 CNS) of the same molecule?
The TGI was 59.2 µM.

And the TGI (M14 melanoma)?
Its TGI is 47.4 µM.

And the TGI (NCI/ADR-RES ovarian)?
The TGI was 43.5 µM.

And the TGI (HS 578T breast)?
Its TGI is 8.67 µM.

What about the TGI (CAKI-1 renal) of the same molecule?
Its TGI is 66.1 µM.

And the TGI (NCI-H23 lung)?
Its TGI is 48.3 µM.

What about the TGI (MCF7 breast) of the same molecule?
The TGI was over 100 µM.

What about the TGI (MDA-MB-231 breast) of the same molecule?
Its TGI is 82.4 µM.

And the TGI (SF-295 CNS)?
The TGI was 25.7 µM.

What about the TGI (LOX IMVI melanoma) of the same molecule?
The TGI was 65.2 µM.

And the TGI (IGROV1 ovarian)?
The TGI was over 100 µM.

And the TGI (SK-MEL-5 melanoma)?
The TGI was 29.6 µM.

What about the TGI (OVCAR-4 ovarian) of the same molecule?
Its TGI is over 100 µM.

And the TGI (RPMI-8226 leukemia)?
The TGI was 54.9 µM.

What about the TGI (PC-3 prostate) of the same molecule?
The TGI was 27.3 µM.

And the TGI (NCI-H226 lung)?
The TGI was 37.4 µM.

What about the TGI (OVCAR-8 ovarian) of the same molecule?
Its TGI is 33.1 µM.

And the TGI (MDA-N)?
Its TGI is 4.33 µM.

What about the TGI (SF-539 CNS) of the same molecule?
Its TGI is 14.7 µM.

And the TGI (OVCAR-5 ovarian)?
Its TGI is 74.8 µM.

And the TGI (MOLT-4 leukemia)?
Its TGI is 32.7 µM.

And the TGI (HCT-15 colon)?
Its TGI is 51.3 µM.

And the TGI (SR leukemia)?
Its TGI is 7.85 µM.

What about the TGI (NCI-H522 lung) of the same molecule?
The TGI was 5.66 µM.

And the TGI (HL-60(TB) leukemia)?
The TGI was 9.33 µM.

And the TGI (RXF 393 renal)?
Its TGI is 49.1 µM.

What about the TGI (MDA-MB-435) of the same molecule?
Its TGI is 70.4 µM.

What about the TGI (SF-268 CNS) of the same molecule?
Its TGI is 18.4 µM.

What about the TGI (K-562 leukemia) of the same molecule?
The TGI was 23.8 µM.

What about the TGI (OVCAR-3 ovarian) of the same molecule?
The TGI was 4.63 µM.

What about the TGI (BT-549 breast) of the same molecule?
The TGI was 31.3 µM.

And the TGI (SK-MEL-28 melanoma)?
Its TGI is over 100 µM.

What about the TGI (HT29 colon) of the same molecule?
Its TGI is 38.5 µM.

And the TGI (KM12 colon)?
The TGI was over 100 µM.

And the TGI (SW-620 colon)?
The TGI was over 100 µM.

What about the TGI (TK-10 renal) of the same molecule?
Its TGI is over 100 µM.

What about the TGI (HOP-62 NSCLC) of the same molecule?
The TGI was 51.8 µM.

What about the TGI (DU-145 prostate) of the same molecule?
Its TGI is over 100 µM.

And the TGI (SK-MEL-2 melanoma)?
Its TGI is 67.1 µM.

And the TGI (HCT-116 colon)?
The TGI was 67.2 µM.

And the TGI (A498 renal)?
The TGI was 89.2 µM.

And the TGI (T-47D breast)?
Its TGI is over 100 µM.

What about the TGI (UACC-257 melanoma) of the same molecule?
Its TGI is over 100 µM.

And the TGI (786-0 renal)?
The TGI was 35.5 µM.
